Laboratory results taken from ChEMBL document CHEMBL4483862, “Open-source discovery of chemical leads for next-generation chemoprotective antimalarials” (2018).

Tested on: Plasmodium berghei
Assay: Luciferase/luciferin-expressing antifolate-resistant parasites were used to infect a culture of HepG2 cells that were pre-incubated with compounds. Infected hepatocytes emit light due to the luciferase reaction. Assay results are presented as the percent inhibition of light emission compared to control. […]
Assay type: functional
Conditions: sporozoite; for IC50: read-out: LUCIFERASE INFECTION ASSAY - IC50; for IC90: read-out: LUCIFERASE INFECTION ASSAY - IC90

`Cc1nc(N2N=C3/C(=C/c4ccc(F)cc4)CCCC3C2c2ccc(F)cc2)sc1C(=O)N(C)C` (stereo unspecified) was tested, and the IC50 was over 10 µM and the IC90 was over 10 µM.

In the case of `O=C(COC(=O)c1cccnc1Cl)NCCc1ccc(F)cc1`, the IC50 is reported as over 10 µM and the IC90 is reported as over 10 µM.

`N#CCC(=O)NN1Cc2ccccc2C1=N` gave an IC50 of over 10 µM and an IC90 of over 10 µM.

`Cc1cc(C)nc(N/N=C2/CCCC/C2=C\c2ccccc2)n1` was tested, and the IC50 was over 10 µM and the IC90 was over 10 µM.

`Cc1ccc(C23CC4CC(CC(C(=O)N5CCN(CCc6ccccc6)CC5)(C4)C2)C3)cc1` gave an IC50 of over 10 µM and an IC90 of over 10 µM.

In the case of `O=C(CNc1cccc(S(=O)(=O)N2CCOCC2)c1)N(C1CCCCC1)C1CCS(=O)(=O)C1` (stereo unspecified), the IC50 is reported as over 10 µM and the IC90 is reported as over 10 µM.

With `COc1cc(/C=C/C(=O)OCC(=O)Nc2cc(Cl)cc(Cl)c2)cc(OC)c1OC` the IC50 was over 10 µM and the IC90 was over 10 µM.

`CCC(C)(C)c1ccc(Oc2ccc(NC(=O)CN3c4cccc5cccc(c45)S3(=O)=O)cc2)cc1` showed an IC50 of over 10 µM and an IC90 of over 10 µM.

`CCc1c(C#N)c(SCC(=O)c2cc(C)n(-c3ccccc3)c2C)nc2c1C(=O)CC(C)(C)C2` gave an IC50 of over 10 µM and an IC90 of over 10 µM.

`Cc1cc(Br)ccc1NC(=O)CNC(=O)CCC(=O)N1CCC(c2ccccc2)=N1` gave an IC50 of over 10 µM and an IC90 of over 10 µM.

`CCOc1ccc(C2(O)C(C)N3C(=[N+]2c2ccc(OC)cc2)CCc2ccccc23)cc1` (stereo unspecified) showed an IC50 of over 10 µM and an IC90 of over 10 µM.

`C/C(=N\NC(=O)c1ccc(N/N=C(\C)c2ccccc2Br)cc1)c1ccccc1Br` was tested, and the IC50 was over 10 µM and the IC90 was over 10 µM.

Work on `CCN(C(=O)CSc1nnc(SCC(=O)N(CC)C2CCCCC2)s1)C1CCCCC1` yielded an IC50 of over 10 µM and an IC90 of over 10 µM.

Compound `CCOc1ccc(S(=O)(=O)N2c3ccccc3C(C(N)=O)CC2C)cc1OCC` (stereo unspecified) has an IC50 of over 10 µM and an IC90 of over 10 µM.

With `COc1ccc(-c2cc(C(=O)NNC(=S)NC3CC4CCC3C4)[nH]n2)cc1` (stereo unspecified) the IC50 was over 10 µM and the IC90 was over 10 µM.

`O=C(Cn1cc(I)c(=O)c(I)c1)OCC(=O)N1CCCc2ccccc21` gave an IC50 of over 10 µM and an IC90 of over 10 µM.

`O=C(Cn1ncc(Cl)c(Cl)c1=O)NCCC(c1ccccc1)c1ccccc1` showed an IC50 of 5.37 µM and an IC90 of 7.67 µM.

`COc1ccc(C2NC(=O)NC(c3ccccc3)=C2c2nc3ccccc3s2)cc1OCc1ccccc1` (stereo unspecified) gave an IC50 of 9.63 µM and an IC90 of over 10 µM.

`CN(C)c1nc(N)c2c(N)nc3c(cc(O)n3C(=O)NC34CC5CC(CC(C5)C3)C4)c2c1C#N` was tested, and the IC50 was 5.64 µM and the IC90 was over 10 µM.

Compound `CC(C)C(C)NC(=O)CSc1nnc(CC2CCCC2)[nH]1` (stereo unspecified) has an IC50 of over 10 µM and an IC90 of over 10 µM.

`O=C(N/N=C1/C(=O)c2cccc3cccc1c23)c1cccc(S(=O)(=O)N2CCCCC2)c1` gave an IC50 of over 10 µM and an IC90 of over 10 µM.

`C=CC/N=c1\scc(-c2ccc(Br)s2)n1/N=C/c1ccccc1[N+](=O)[O-]` was tested, and the IC50 was over 10 µM and the IC90 was over 10 µM.

`CSc1nc2nc(C)c(CCC(=O)N(CC(F)(F)F)C(C)C3CC3)c(C)n2n1` (stereo unspecified) was tested, and the IC50 was 0.994 µM and the IC90 was 1.24 µM.

With `COc1cc2c(cc1NC(=O)C1CCCN(S(=O)(=O)c3ccc(F)cc3)C1)oc1ccccc12` (stereo unspecified) the IC50 was over 10 µM and the IC90 was over 10 µM.

With `Cc1nn(-c2ccccc2)c(N2CCCCC2)c1/C=N/Nc1ccc(C(F)(F)F)cn1` the IC50 was over 10 µM and the IC90 was over 10 µM.

With `Cc1[nH]c(=S)c(C#N)c2c1C1(C)CCC3C(CC=C4CC(O)CCC43C)C1C2` (stereo unspecified) the IC50 was over 10 µM and the IC90 was over 10 µM.

`C=CCNC(=S)N/N=C/C1=C(N2CCOCC2)C(=C/c2ccc(Cl)cc2Cl)/CC1` showed an IC50 of over 10 µM and an IC90 of over 10 µM.

For `Cc1c(C(=O)N/N=C/c2c3ccccc3c(Cl)c3ccccc23)nc2ccccn12`, the IC50 was over 10 µM and the IC90 was over 10 µM.

With `CCN(CC)c1ccc2cc(/C=N/NC(=O)C34CC5CC(CC(C5)C3)C4)c(=O)oc2c1` the IC50 was over 10 µM and the IC90 was over 10 µM.

`Cc1[nH]c2ccccc2c1/C=N/N(Cc1ccccc1)c1ccccc1` showed an IC50 of over 10 µM and an IC90 of over 10 µM.

For `O=C(COc1cccc(Br)c1)N/N=C/C1=C(N2CCOCC2)C(=C/c2ccc(Cl)cc2)/CC1`, the IC50 was over 10 µM and the IC90 was over 10 µM.

Compound `CCCCCCCCNC(=O)/C(C#N)=C/c1ccc(C)cc1C` has an IC50 of over 10 µM and an IC90 of over 10 µM.

With `CNC(=S)Nc1ccc(-n2cnc3ccccc32)cc1` the IC50 was over 10 µM and the IC90 was over 10 µM.

`Cc1cc(C)nc(N/N=C/c2c(C)nn(-c3ccccc3)c2Sc2nc3ccccc3s2)n1` gave an IC50 of over 10 µM and an IC90 of over 10 µM.

`Cc1ccc(C(=O)c2c3c4sc5ccccc5n4c(-c4ccc(C)cc4)nc-3[n+](-c3ccccc3)c2O)cc1` gave an IC50 of over 10 µM and an IC90 of over 10 µM.

In the case of `CCOC(=O)c1c(C)[nH]c(N=Nc2ccc3c(c2)OCO3)c1C`, the IC50 is reported as 9.43 µM and the IC90 is reported as over 10 µM.

With `O=C(Cn1c(CN2CCCCC2)nc2ccccc2c1=O)Nc1ccccc1Oc1ccccc1` the IC50 was over 10 µM and the IC90 was over 10 µM.

Compound `CC(C)(C)c1cc(N2Cc3ccccc3C2=N)cc(C(C)(C)C)c1` has an IC50 of over 10 µM and an IC90 of over 10 µM.

In the case of `O=C(Cn1cnc2scc(-c3ccccc3)c2c1=O)Nc1ccc([N+](=O)[O-])cc1`, the IC50 is reported as over 10 µM and the IC90 is reported as over 10 µM.

`CCOC(=O)/C(=N\Nc1sc(C(=O)OCC)c(C)c1C(=O)OCC)C(=O)c1ccccc1` gave an IC50 of 7.51 µM and an IC90 of 9.2 µM.

With `COC(=O)c1occc1CSc1nc(NC(=O)c2ccccc2)c2c(C)c(C)oc2n1` the IC50 was over 10 µM and the IC90 was over 10 µM.

For `Cc1ccc(C)c(S(=O)(=O)N(Cc2nnc(-c3ccc(Cl)cc3)o2)c2cccc(C(F)(F)F)c2)c1`, the IC50 was over 10 µM and the IC90 was over 10 µM.

`CN(c1ccccc1)S(=O)(=O)c1cccc(NC(=O)Nc2ccccc2[N+](=O)[O-])c1` was tested, and the IC50 was over 10 µM and the IC90 was over 10 µM.

`COc1cc(OC)c(C(=O)/C=C/c2cnc(N3CCCC3)nc2)cc1Cl` was tested, and the IC50 was 7.4 µM and the IC90 was over 10 µM.

In the case of `O=C(CCSCc1cc(Cl)c2c(c1)OCO2)Nc1ccc(Cl)cc1F`, the IC50 is reported as over 10 µM and the IC90 is reported as over 10 µM.

Compound `CCN(CC)c1ccc(/C=C2\CCC(/C=N/NC(=O)NC3CCCCC3)=C2N2CCOCC2)cc1` has an IC50 of over 10 µM and an IC90 of over 10 µM.

Compound `N#CC(C(=O)COC(=O)COc1cc(Cl)c(Cl)cc1Cl)=C1Nc2ccccc2N1` has an IC50 of over 10 µM and an IC90 of over 10 µM.

Work on `CCc1c(C#N)c(SCC(=O)c2cc(C)n(-c3ccccc3F)c2C)nc2c1C(=O)CC(C)(C)C2` yielded an IC50 of 5.79 µM and an IC90 of over 10 µM.

In the case of `Cc1cc(=O)n(-c2ccc(C(F)(F)F)cc2[N+](=O)[O-])[nH]1`, the IC50 is reported as over 10 µM and the IC90 is reported as over 10 µM.

With `CN(C(=O)CCc1cc(C(C)(C)C)c(O)c(C(C)(C)C)c1)C1CCS(=O)(=O)C1` (stereo unspecified) the IC50 was over 10 µM and the IC90 was over 10 µM.

`COC(=O)c1ccc(/C=C/C(=O)OCC(=O)C(C#N)=C2Nc3ccccc3N2)cc1` was tested, and the IC50 was over 10 µM and the IC90 was over 10 µM.

`Cc1cc(C)cc(NC(=O)C(NNC(=O)CC23CC4CC(CC(C4)C2)C3)c2ccccc2)c1` (stereo unspecified) showed an IC50 of over 10 µM and an IC90 of over 10 µM.

`CC(OC(=O)c1ccc(C(C)C)cc1)C(=O)Nc1sccc1C(N)=O` (stereo unspecified) was tested, and the IC50 was over 10 µM and the IC90 was over 10 µM.

`Cc1ccc(S(=O)(=O)c2c(C)nn(C(C)(C)C)c2OC(=O)c2cccc([N+](=O)[O-])c2)cc1` showed an IC50 of over 10 µM and an IC90 of over 10 µM.

`CC(C)CCn1c(Sc2ccc3nnnn3n2)nc2scc(-c3cccs3)c2c1=O` gave an IC50 of over 10 µM and an IC90 of over 10 µM.

`CC(Nc1ccc(C(F)(F)F)cc1[N+](=O)[O-])C(=O)Nc1ccccc1C(=O)Nc1cccc(Cl)c1` (stereo unspecified) showed an IC50 of over 10 µM and an IC90 of over 10 µM.

`COC(=O)c1c(-c2cccs2)csc1NC(=O)CSc1cc(C)c2ccccc2n1` showed an IC50 of over 10 µM and an IC90 of over 10 µM.

Work on `C=CCn1c(SCc2c(C(=O)OCC)sc(N)c2C#N)nnc1-c1ccc(Cl)cc1Cl` yielded an IC50 of over 10 µM and an IC90 of over 10 µM.
